Laboratory results as given in US9914730B2, “Azaquinazoline inhibitors of Atypical protein Kinase C” (Ignyta, Inc., priority 2012, dated 2018).

Each molecule was assayed against T1, full-length human PKCι (Homo sapiens, UniProt P41743) (assay: PKCι IC50 IMAP assay, full-length PKCι at 150 μM ATP). Conditions: read-out: IC50 in IMAP assay against full length PKCi at 150 μM ATP.
T1 construct: Recombinant, full-length human PKCι expressed in Sf21 insect cells is also commercially available; purchased; host or cells: Sf21 insect cells
T1 sequence (P41743 1-596): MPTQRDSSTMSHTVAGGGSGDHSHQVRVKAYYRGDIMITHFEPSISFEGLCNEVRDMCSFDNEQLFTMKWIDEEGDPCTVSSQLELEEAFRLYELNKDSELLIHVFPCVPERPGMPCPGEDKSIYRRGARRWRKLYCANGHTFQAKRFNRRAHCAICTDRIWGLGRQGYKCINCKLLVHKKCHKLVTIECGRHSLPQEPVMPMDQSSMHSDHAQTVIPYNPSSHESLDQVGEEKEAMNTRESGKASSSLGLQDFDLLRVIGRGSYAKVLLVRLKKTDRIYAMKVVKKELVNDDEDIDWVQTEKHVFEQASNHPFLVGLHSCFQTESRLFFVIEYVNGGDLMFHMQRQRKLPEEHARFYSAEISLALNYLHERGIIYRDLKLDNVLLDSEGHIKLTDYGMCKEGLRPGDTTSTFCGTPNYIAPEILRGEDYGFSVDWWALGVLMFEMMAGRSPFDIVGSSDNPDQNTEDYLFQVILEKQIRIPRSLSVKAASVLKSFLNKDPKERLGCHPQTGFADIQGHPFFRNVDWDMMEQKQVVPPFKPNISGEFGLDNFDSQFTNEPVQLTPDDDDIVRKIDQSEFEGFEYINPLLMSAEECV
Assay type: biochemical
Outline: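 IMAP fluorescence polarisation (ex 485/em 530 nm) read-out; % inhibition set from no-compound (0%) and no-enzyme (100%) controls, IC50 from dose-response curve fit. Sf21-expressed full-length enzyme ~15 pM, 100 nM FAM peptide, ATP 150 μM (5× KM^APP), 60 min at RT.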

Compound | IC50 [µM]
COc1cncc2nc(-c3ccnc(Nc4nc(C)c(C)o4)c3)nc(N3CCNCC3)c12 [Example 203, (4,5-Dimethyl-oxazol-2-yl)-[4-(5-methoxy-4-piperazin-1-yl-pyrido[3,4-d]pyrimidin-2-yl)-pyridin-2-yl]-amine] | < 0.1
COc1cncc2nc(-c3ccnc(Nc4nc(C5CC5)cs4)c3)nc(N3CCNCC3)c12 [Example 204, (4-Cyclo-propyl-thiazol-2-yl)-[4-(5-methoxy-4-piperazin-1-yl-pyrido[3,4-d]pyrimidin-2-yl)-pyridin-2-yl]-amine] | < 0.1
COc1cncc2nc(-c3ccnc(Nc4cccc(C#N)c4)c3)nc(N3CCNCC3)c12 [Example 205, 3-[4-(5-Methoxy-4-piperazin-1-yl-pyrido[3,4-d]pyrimidin-2-yl)-pyridin-2-ylamino]-benzonitrile] | 0.1 to 1
COc1cncc2nc(-c3ccnc(Nc4ccccc4F)c3)nc(N3CCNCC3)c12 [Example 206, (2-Fluoro-phenyl)-[4-(5-methoxy-4-piperazin-1-yl-pyrido[3,4-d]pyrimidin-2-yl)-pyridin-2-yl]-amine] | < 0.1
COc1cncc2nc(-c3ccnc(Nc4ccc(C(F)(F)F)cc4)c3)nc(N3CCNCC3)c12 [Example 207, [4-(5-Methoxy-4-piperazin-1-yl-pyrido[3,4-d]pyrimidin-2-yl)-pyridin-2-yl]-(4-trifluoromethyl-phenyl)-amine] | 0.1 to 1
COc1cncc2nc(-c3ccnc(N)c3)nc(N3CCNCC3)c12 [Example 208, 4-(5-Methoxy-4-piperazin-1-yl-pyrido[3,4-d]pyrimidin-2-yl)-pyridin-2-ylamine] | < 0.1
COc1cncc2nc(-c3ccnc(NC(=O)CN4CCOCC4)c3)nc(N3CCNCC3)c12 [Example 209, N-[4-(5-Methoxy-4-piperazin-1-yl-pyrido[3,4-d]pyrimidin-2-yl)-pyridin-2-yl]-2-morpholin-4-yl-acetamide] | 0.1 to 1
COc1cncc2nc(-c3ccnc(NC(=O)CN4CCCCC4)c3)nc(N3CCNCC3)c12 [Example 210, N-[4-(5-Methoxy-4-piperazin-1-yl-pyrido[3,4-d]pyrimidin-2-yl)-pyridin-2-yl]-2-piperidin-1-yl-acetamide] | 0.1 to 1
COc1cncc2nc(-c3ccnc(Nc4ccncn4)c3)nc(N3CCNCC3)c12 [Example 211, [4-(5-Methoxy-4-piperazin-1-yl-pyrido[3,4-d]pyrimidin-2-yl)-pyridin-2-yl]-pyrimidin-4-yl-amine] | < 0.1
COc1cncc2nc(-c3ccnc(NC(=O)c4ccccc4)c3)nc(N3CCNCC3)c12 [Example 212, N-[4-(5-Methoxy-4-piperazin-1-yl-pyrido[3,4-d]pyrimidin-2-yl)-pyridin-2-yl]-benzamide] | < 0.1
CNc1cc(-c2nc(N3CCNCC3)c3c(OC)cncc3n2)ccn1 [Example 213, [4-(5-Methoxy-4-piperazin-1-yl-pyrido[3,4-d]pyrimidin-2-yl)-pyridin-2-yl]-methyl-amine] | 0.1 to 1
COc1cncc2nc(-c3ccnc(NC(C)=O)c3)nc(N3CCNCC3)c12 [Example 214, N-[4-(5-Methoxy-4-piperazin-1-yl-pyrido[3,4-d]pyrimidin-2-yl)-pyridin-2-yl]-acetamide] | < 0.1
COc1cncc2nc(-c3ccnc(NC(C)=O)c3)nc(N3CCC(O)CC3)c12 [Example 215, N-{4-[4-(4-Hydroxy-piperidin-1-yl)-5-methoxy-pyrido[3,4-d]pyrimidin-2-yl]-pyridin-2-yl}-acetamide] | 0.1 to 1
COc1cncc2nc(-c3ccnc(NC(=O)C4CC4)c3)nc(N3CCNCC3)c12 [Example 216, Cyclo-propane-carboxylic acid[4-(5-methoxy-4-piperazin-1-yl-pyrido[3,4-d]pyrimidin-2-yl)-pyridin-2-yl]-amide] | < 0.1
COc1cncc2nc(-c3ccnc(NC(=O)C(C)(C)C)c3)nc(N3CCNCC3)c12 [Example 217, N-[4-(5-Methoxy-4-piperazin-1-yl-pyrido[3,4-d]pyrimidin-2-yl)-pyridin-2-yl]-2,2-dimethyl-propionamide] | 0.1 to 1
COc1cncc2nc(-c3ccnc(NC(=O)C4CCOCC4)c3)nc(N3CCNCC3)c12 [Example 218, Tetrahydro-pyran-4-carboxylic acid[4-(5-methoxy-4-piperazin-1-yl-pyrido[3,4 d]pyrimidin-2-yl)-pyridin-2-yl]-amide] | < 0.1

Compound | IC50 [µM]
COc1cncc2nc(-c3ccnc(Nc4nccs4)c3)nc(N3CCNCC3)c12 [Example 219, [4-(5-Methoxy-4-piperazin-1-yl-pyrido[3,4-d]pyrimidin-2-yl)-pyridin-2-yl]-thiazol-2-yl-amine] | 0.1 to 1
COc1cncc2nc(-c3ccnc(Nc4ncco4)c3)nc(N3CCNCC3)c12 [Example 220, [4-(5-Methoxy-4-piperazin-1-yl-pyrido[3,4-d]pyrimidin-2-yl)-pyridin-2-yl]-oxazol-2-yl-amine] | < 0.1
COc1cncc2nc(-c3ccnc(Nc4nc(C)co4)c3)nc(N3CCNCC3)c12 [Example 221, [4-(5-Methoxy-4-piperazin-1-yl-pyrido[3,4-d]pyrimidin-2-yl)-pyridin-2-yl]-(4-methyl-oxazol-2-yl)-amine] | < 0.1
COc1cncc2nc(-c3ccnc(Nc4ccccc4)c3)nc(N3CCN[C@H](CO)C3)c12 [Example 222, {(S)-4-[5-Methoxy-2-(2-phenylamino-pyridin-4-yl)-pyrido[3,4-d]pyrimidin-4-yl]-piperazin-2-yl}-methanol] | < 0.1
COc1cncc2nc(-c3ccnc(Nc4ccccc4)c3)nc(N3CCC(C)(O)CC3)c12 [Example 223, 1-[5-Mcthoxy-2-(2-phenylamino-pyridin-4-yl)-pyrido[3,4-d]pyrimidin-4-yl]-4-methyl-piperidin-4-ol] | 1 to 10
COc1cncc2nc(-c3ccnc(Nc4ccccc4)c3)nc(N3CCN[C@@H](C(C)C)C3)c12 [Example 224, {4-[4-((S)-3-Isopropyl-piperazin-1-yl)-5-methoxy-pyrido[3,4-d]pyrimidin-2-yl]-pyridin-2-yl}-phenyl-amine] | < 0.1
COc1cncc2nc(-c3ccnc(Nc4ccccc4)c3)nc(N3CCN[C@@H](CCO)C3)c12 [Example 225, 2-{(S)-4-[5-Methoxy-2-(2-phenylamino-pyridin-4-yl)-pyrido[3,4-d]pyrimidin-4-yl]-piperazin-2-yl}-ethanol] | 0.1 to 1
COc1cncc2nc(-c3ccnc(Nc4ccc(N(C)C)cc4)c3)nc(N[C@@H]3CCNC3)c12 [Example 226, N-{4-[5-Methoxy-4-((R)-pyrrolidin-3-ylamino)-pyrido[3,4-d]pyrimidin-2-yl]-pyridin-2-yl}-N′,N′-dimethyl-benzene-1,4-diamine] | < 0.1
COc1cncc2nc(-c3ccnc(Nc4cccc(N5CCOCC5)c4)c3)nc(N[C@@H]3CCNC3)c12 [Example 227, {5-Methoxy-2-[2-(3-morpholin-4-yl-phenylamino)-pyridin-4-yl]-pyrido[3,4-d]pyrimidin-4-yl}-(R)-pyrrolidin-3-yl-amine] | < 0.1
COc1cncc2nc(-c3ccnc(Nc4ccccc4F)c3)nc(N[C@@H]3CCNC3)c12 [Example 228, {2-[2-(2-Fluoro-phenylamino)-pyridin-4-yl]-5-methoxy-pyrido[3,4-d]pyrimidin-4-yl}-(R)-pyrrolidin-3-yl-amine] | < 0.1
COc1cncc2nc(-c3ccnc(Nc4ccc(N5CCOCC5)cc4)c3)nc(N[C@@H]3CCNC3)c12 [Example 229, {5-Methoxy-2-[2-(4-morpholin-4-yl-phenylamino)-pyridin-4-yl]-pyrido[3,4-d]pyrimidin-4-yl}-(R)-pyrrolidin-3-yl-amine] | < 0.1
COc1cncc2nc(-c3ccnc(Nc4ccc(F)cc4)c3)nc(N[C@@H]3CCNC3)c12 [Example 230, {2-[2-(4-Fluoro-phenyl-amino)-pyridin-4-yl]-5-methoxy-pyrido[3,4-d]pyrimidin-4-yl}-(R)-pyrrolidin-3-yl-amine] | < 0.1
COc1cncc2nc(-c3ccnc(Nc4ccccc4)c3)nc(N3CCNC(C(F)(F)F)C3)c12 (centres unmarked) [Example 231, {4-[5-Methoxy-4-(3-trifluoromethyl-piperazin-1-yl)-pyrido[3,4-d]pyrimidin-2-yl]-pyridin-2-yl}-phenyl-amine] | 10 to 40
COc1cncc2nc(-c3ccnc(Nc4ccccc4)c3)nc(N3CCN[C@@H](CC#N)C3)c12 [Example 232, {(S)-4-[5-Methoxy-2-(2-phenylamino-pyridin-4-yl)-pyrido[3,4-d]pyrimidin-4-yl]-piperazin-2-yl}-acetonitrile] | 0.1 to 1
COc1cncc2nc(-c3ccnc(Nc4ccccc4)c3)nc(N3CCN[C@@H](CF)C3)c12 [Example 233, {4-[4-((R)-3-Fluoromethyl-piperazin-1-yl)-5-methoxy-pyrido[3,4-d]pyrimidin-2-yl]-pyridin-2-yl}-phenyl-amine] | 0.1 to 1
COc1cncc2nc(-c3ccnc(NC(=O)C4CC4)c3)nc(N3CCC(O)CC3)c12 [Example 234, Cyclo-propane-carboxylic acid {4-[4-(4-hydroxy-piperidin-1-yl)-5-methoxy-pyrido[3,4-d]pyrimidin-2-yl]-pyridin-2-yl}-amide] | 0.1 to 1
